# Experimental data reported in US8440708B2, “Triazole-substituted arylamides as P2X3 and P2X2/3 antagonists” (Roche Palo Alto LLC, priority 2007, dated 2013).
# Tests used:
# rat P2X3 receptor = biological target: T1, rat P2X3 receptor (Rattus norvegicus, UniProt P49654); assay: P2X3/P2X2/3 FLIPR (Fluorometric Imaging Plate Reader) Assay, P2X3; type: cell-based; settings: CHO-K1 cells transfected with rat P2X3; agonist α,β-meATP 1 μM; Table 1; read-out: P2X3 pKi (converted)
# T1 construct: expressed in transfected cells; host or cells: CHO-K1
# T1 sequence (P49654 1-397): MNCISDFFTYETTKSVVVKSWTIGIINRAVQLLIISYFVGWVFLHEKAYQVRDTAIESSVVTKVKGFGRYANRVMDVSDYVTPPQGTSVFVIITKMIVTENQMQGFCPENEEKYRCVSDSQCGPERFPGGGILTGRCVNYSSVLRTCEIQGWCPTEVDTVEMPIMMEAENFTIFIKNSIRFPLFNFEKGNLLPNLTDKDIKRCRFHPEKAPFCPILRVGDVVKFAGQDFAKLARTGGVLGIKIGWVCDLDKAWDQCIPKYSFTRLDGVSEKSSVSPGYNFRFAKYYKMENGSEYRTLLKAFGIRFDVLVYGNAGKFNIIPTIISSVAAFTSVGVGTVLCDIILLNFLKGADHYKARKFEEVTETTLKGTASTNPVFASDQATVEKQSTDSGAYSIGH
# Summary of the method: (§1)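 Inhibition curves came from nonlinear regression of peak fluorescence after α,β-meATP, given at 1 μM final for rat P2X3 and 5 μM for human P2X2/3. Compounds sat 20 min at room temperature on Fluo-3-loaded transfected CHO-K1 cells in HBSS/HEPES/2 mM CaCl2/probenecid buffer before agonist.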
# human P2X2/3 receptor = biological target: T2, human P2X2/3 receptor (Homo sapiens, UniProt P56373+Q9UBL9); assay: P2X3/P2X2/3 FLIPR (Fluorometric Imaging Plate Reader) Assay, P2X2/3; type: cell-based; settings: CHO-K1 cells transfected with human P2X2/3; agonist α,β-meATP 5 μM; Table 1; read-out: P2X2/3 pKi (converted)
# T2 construct: expressed in transfected cells; host or cells: CHO-K1
# T2 sequence (Q9UBL9 1-471): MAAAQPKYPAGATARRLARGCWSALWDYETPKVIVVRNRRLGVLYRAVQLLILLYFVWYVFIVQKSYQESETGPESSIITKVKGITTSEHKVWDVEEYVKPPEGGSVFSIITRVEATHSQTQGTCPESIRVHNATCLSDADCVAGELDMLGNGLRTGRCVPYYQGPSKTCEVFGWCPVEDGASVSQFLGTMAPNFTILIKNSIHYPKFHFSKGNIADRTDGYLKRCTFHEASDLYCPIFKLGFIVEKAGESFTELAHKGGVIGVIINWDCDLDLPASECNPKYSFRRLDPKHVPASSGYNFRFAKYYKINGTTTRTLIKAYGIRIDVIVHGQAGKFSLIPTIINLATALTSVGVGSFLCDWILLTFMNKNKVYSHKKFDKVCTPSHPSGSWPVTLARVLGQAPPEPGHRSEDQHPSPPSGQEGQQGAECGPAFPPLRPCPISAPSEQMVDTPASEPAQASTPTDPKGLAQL
# T2 sequence (P56373 1-397): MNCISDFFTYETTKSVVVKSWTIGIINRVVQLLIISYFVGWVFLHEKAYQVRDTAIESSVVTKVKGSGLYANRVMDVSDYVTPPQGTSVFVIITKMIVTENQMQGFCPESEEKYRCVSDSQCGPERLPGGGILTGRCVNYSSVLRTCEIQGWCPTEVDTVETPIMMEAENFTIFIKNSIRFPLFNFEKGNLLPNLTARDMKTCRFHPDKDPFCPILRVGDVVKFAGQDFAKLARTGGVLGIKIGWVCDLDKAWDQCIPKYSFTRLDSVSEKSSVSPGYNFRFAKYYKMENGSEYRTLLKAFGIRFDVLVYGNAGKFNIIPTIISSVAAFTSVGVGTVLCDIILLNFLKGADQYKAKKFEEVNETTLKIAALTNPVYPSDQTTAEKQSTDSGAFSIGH
# Summary of the method: as §1
Structure (SMILES),Ki (rat P2X3 receptor),Ki (human P2X2/3 receptor)
"COCc1ncnn1-c1cc(C(=O)NC(C)c2cnccn2)cc(-c2ccc(C)cc2)c1 (centres unmarked) [Compound 46, 5-(5-Methoxymethyl-[1,2,4]triazol-1-yl)-4′-methyl-biphenyl-3-carboxylic acid (1-pyrazin-2-yl-ethyl)-amide]",5.13 nM,204 nM
"CCCc1ncnn1-c1cc(C(=O)NCc2cnc(C)cn2)cc(-c2ccc(C)cn2)c1 [Compound 116, N-(5-Methyl-pyrazin-2-ylmethyl)-3-(5-methyl-pyridin-2-yl)-5-(5-propyl-[1,2,4]triazol-1-yl)-benzamide]",2.51 nM,85.1 nM
"Cc1ccc(-c2cc(C(=O)N[C@@H](C)c3cnccn3)cc(-n3ncnc3C(F)(F)F)c2)nc1 [Compound 180, 3-(5-Methyl-pyridin-2-yl)-N-((S)-1-pyrazin-2-yl-ethyl)-5-(5-trifluoromethyl-[1,2,4]triazol-1-yl)-benzamide]",6.61 nM,46.8 nM
"COCc1ncnn1-c1cc(C(=O)N[C@@H](C)CO)cc(-c2ccc(C)cc2)c1 [Compound 45, 5-(5-Methoxymethyl-[1,2,4]triazol-1-yl)-4′-methyl-biphenyl-3-carboxylic acid ((S)-2-hydroxy-1-methyl-ethyl)-amide]",12.9 nM,3160 nM
"Cc1ccc(-c2cc(C(=O)NC(C)c3cnccn3)cc(-c3nnc4ccccn34)c2)c(F)c1 (centres unmarked) [Compound 4, 2′-Fluoro-4′-methyl-5-[1,2,4]triazolo[4,3-a]pyridin-3-yl-biphenyl-3-carboxylic acid (1-pyrazin-2-yl-ethyl)-amide]",437 nM,1230 nM
"Cc1cnc(CNC(=O)c2cc(-c3ccc(Cl)cn3)cc(-n3ncnc3C(C)N(C)C)c2)cn1 (centres unmarked) [Compound 158, 3-(5-Chloro-pyridin-2-yl)-5-[5-(1-dimethylamino-ethyl)-[1,2,4]triazol-1-yl]-N-(5-methyl-pyrazin-2-ylmethyl)-benzamide]",37.2 nM,851 nM
"Cc1ccc(-c2cc(C(=O)NC(C)c3cnccn3)cc(-n3ncnc3C3CCC3)c2)nc1 (centres unmarked) [Compound 87, 3-(5-Cyclobutyl-[1,2,4]triazol-1-yl)-5-(5-methyl-pyridin-2-yl)-N-(1-pyrazin-2-yl-ethyl)-benzamide]",2.63 nM,35.5 nM
"Cc1ccc(-c2cc(C(=O)NC3CC3)cc(-n3ncnc3C(F)(F)F)c2)nc1 [Compound 96, N-Cyclopropyl-3-(5-methyl-pyridin-2-yl)-5-(5-trifluoromethyl-[1,2,4]triazol-1-yl)-benzamide]",4.57 nM,1260 nM
"Cc1ccc(-c2cc(C(=O)N[C@@H](C)CO)cc(-n3nncc3C)c2)cc1 [Compound 13, 4′-Methyl-5-(5-methyl-[1,2,3]triazol-1-yl)-biphenyl-3-carboxylic acid ((S)-2-hydroxy-1-methyl-ethyl)-amide]",75.9 nM,8130 nM
"Cc1ccc(-c2cc(C(=O)NCc3cnc(C)cn3)cc(-n3ncnc3C3CN(C)C3)c2)nc1 [Compound 157, 3-[5-(1-Methyl-azetidin-3-yl)-[1,2,4]triazol-1-yl]-N-(5-methyl-pyrazin-2-ylmethyl)-5-(5-methyl-pyridin-2-yl)-benzamide]",676 nM,10000 nM
"Cc1ccc(-c2cc(C(=O)NCc3cnc(C)cn3)cc(-n3ncnc3C)c2)nc1 [Compound 101, N-(5-Methyl-pyrazin-2-ylmethyl)-3-(5-methyl-pyridin-2-yl)-5-(5-methyl-[1,2,4]triazol-1-yl)-benzamide]",7.94 nM,1150 nM
"Cc1ccc(-c2cc(C(=O)NC(C)c3cnccn3)cc(-n3ncnc3C)c2)nc1 (centres unmarked) [Compound 100, 3-(5-Methyl-pyridin-2-yl)-5-(5-methyl-[1,2,4]triazol-1-yl)-N-(1-pyrazin-2-yl-ethyl)-benzamide]",10.2 nM,2040 nM
"Cc1ccc(-c2cc(C(=O)NC(C)c3cnccn3)cc(-n3ncnc3C(F)(F)F)c2)cc1 (centres unmarked) [Compound 66, 4′-Methyl-5-(5-trifluoromethyl-[1,2,4]triazol-1-yl)-biphenyl-3-carboxylic acid (1-pyrazin-2-yl-ethyl)-amide]",3.72 nM,40.7 nM
"Cc1ccc(-c2cc(C(=O)NCc3cnc(C)cn3)cc(-n3ncnc3-c3ccccc3)c2)nc1 [Compound 143, N-(5-Methyl-pyrazin-2-ylmethyl)-3-(5-methyl-pyridin-2-yl)-5-(5-phenyl-[1,2,4]triazol-1-yl)-benzamide]",20.9 nM,1120 nM
"COC(C)c1ncnn1-c1cc(C(=O)NCc2cnc(C)cn2)cc(-c2ccc(C)cc2)c1 (centres unmarked) [Compound 134, 5-[5-(1-Methoxy-ethyl)-[1,2,4]triazol-1-yl]-4′-methyl-biphenyl-3-carboxylic acid (5-methyl-pyrazin-2-ylmethyl)-amide]",6.61 nM,38 nM
"Cc1ccc(-c2cc(-n3ncnc3C(C)C)cc(C(=O)NC(C)c3cnccn3)c2F)nc1 (centres unmarked) [Compound 173, 2-Fluoro-5-(5-isopropyl-[1,2,4]triazol-1-yl)-3-(5-methyl-pyridin-2-yl)-N-(1-pyrazin-2-yl-ethyl)-benzamide]",3.98 nM,85.1 nM
"CC(NC(=O)c1cc(-c2ccc(Cl)cn2)cc(-n2ncnc2CF)c1)c1cnccn1 (centres unmarked) [Compound 91, 3-(5-Chloro-pyridin-2-yl)-5-(5-fluoromethyl-[1,2,4]triazol-1-yl)-N-(1-pyrazin-2-yl-ethyl)-benzamide]",31.6 nM,2950 nM
"Cc1ccc(-c2cc(-n3ncnc3C(C)C)cc(C(=O)N[C@@H](C)CO)c2F)nc1 [Compound 174, 2-Fluoro-N-((S)-2-hydroxy-1-methyl-ethyl)-5-(5-isopropyl-[1,2,4]triazol-1-yl)-3-(5-methyl-pyridin-2-yl)-benzamide]",6.46 nM,1620 nM
"CCc1ncnn1-c1cc(C(=O)N[C@@H](C)CO)cc(-c2ccc(C)cn2)c1 [Compound 127, 3-(5-Ethyl-[1,2,4]triazol-1-yl)-N-((S)-2-hydroxy-1-methyl-ethyl)-5-(5-methyl-pyridin-2-yl)-benzamide]",24.5 nM,6920 nM
"CCn1nncc1-c1cc(C(=O)NC(C)c2cnccn2)cc(-c2ccc(C)cc2)c1 (centres unmarked) [Compound 38, 5-(3-Ethyl-3H-[1,2,3]triazol-4-yl)-4′-methyl-biphenyl-3-carboxylic acid (1-pyrazin-2-yl-ethyl)-amide]",9.77 nM,550 nM
"CCCc1ncnn1-c1cc(C(=O)NC(C)c2cnccn2)cc(-c2ccc(Cl)cn2)c1 (centres unmarked) [Compound 110, 3-(5-Chloro-pyridin-2-yl)-5-(5-propyl-[1,2,4]triazol-1-yl)-N-(1-pyrazin-2-yl-ethyl)-benzamide]",7.24 nM,355 nM
"Cc1ccc(-c2cc(C(=O)NC(C)CO)cc(-n3nncc3C(C)C)c2)c(F)c1 (centres unmarked) [Compound 23, 2′-Fluoro-5-(5-isopropyl-[1,2,3]triazol-1-yl)-4′-methyl-biphenyl-3-carboxylic acid (2-hydroxy-1-methyl-ethyl)-amide]",5.75 nM,355 nM
"CCCc1ncnn1-c1cc(C(=O)NC2CC2)cc(-c2ccc(Cl)cn2)c1 [Compound 112, 3-(5-Chloro-pyridin-2-yl)-N-cyclopropyl-5-(5-propyl-[1,2,4]triazol-1-yl)-benzamide]",10.2 nM,1860 nM
"Cc1ccc(-c2cc(C(=O)NCc3ncc(C)cn3)cc(-n3ncnc3C(F)(F)F)c2)nc1 [Compound 171, 3-(5-Methyl-pyridin-2-yl)-N-(5-methyl-pyrimidin-2-ylmethyl)-5-(5-trifluoromethyl-[1,2,4]triazol-1-yl)-benzamide]",16.6 nM,209 nM
"CC(C)Cc1ncnn1-c1cc(C(=O)NC(C)c2cnccn2)cc(-c2ccc(Cl)cn2)c1 (centres unmarked) [Compound 74, 3-(5-Chloro-pyridin-2-yl)-5-(5-isobutyl-[1,2,4]triazol-1-yl)-N-(1-pyrazin-2-yl-ethyl)-benzamide]",4.17 nM,60.3 nM
